Data as given in ChEMBL document CHEMBL1126261, “Synthesis and antimuscarinic properties of some N-substituted 5-(aminomethyl)-3,3-diphenyl-2(3H)-furanones” (J Med Chem, 1992).
“And” between values parts separate entries of the source, which are not always exact repeats. Identical values can stand only once.

Key:
[1] = biological target: Muscarinic acetylcholine receptor (Homo sapiens) (UniProt P20309+P08173+P11229+P08172+P08912)
[2] = biological target: Muscarinic acetylcholine receptor M3 (Cavia porcellus) (UniProt Q8VH26); settings: Urine
Description: Urinary bladder contraction ability in guinea pig by intravenous dose

[3] = biological target: Muscarinic acetylcholine receptor M3 (Cavia porcellus) (UniProt Q8VH26); settings: Urinary bladder
Description: The compound was tested for urinary bladder contraction ability in guinea pig.

Chain of Muscarinic acetylcholine receptor M3 (Cavia porcellus) (Q8VH26 1-587): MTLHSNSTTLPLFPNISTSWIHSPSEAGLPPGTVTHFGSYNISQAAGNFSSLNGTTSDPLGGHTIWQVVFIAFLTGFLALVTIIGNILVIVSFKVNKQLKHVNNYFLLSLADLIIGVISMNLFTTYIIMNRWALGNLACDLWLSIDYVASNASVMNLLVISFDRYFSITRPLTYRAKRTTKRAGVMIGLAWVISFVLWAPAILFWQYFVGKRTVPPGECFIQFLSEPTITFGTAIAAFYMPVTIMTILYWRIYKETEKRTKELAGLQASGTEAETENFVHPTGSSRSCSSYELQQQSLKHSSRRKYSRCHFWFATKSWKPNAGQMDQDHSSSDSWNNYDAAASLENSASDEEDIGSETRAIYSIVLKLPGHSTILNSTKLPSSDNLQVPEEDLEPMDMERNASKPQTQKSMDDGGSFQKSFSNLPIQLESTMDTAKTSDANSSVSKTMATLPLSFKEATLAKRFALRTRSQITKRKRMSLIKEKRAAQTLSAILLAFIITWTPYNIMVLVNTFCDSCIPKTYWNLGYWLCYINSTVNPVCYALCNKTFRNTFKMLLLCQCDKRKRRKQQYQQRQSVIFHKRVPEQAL

Compound	ID50 [1] [mg/kg]	ID50 [2] [mg/kg]	ID50 [3]
CCc1n(CC2CC(c3ccccc3)(c3ccccc3)C(=O)O2)cc[n+]1C (stereo not given)	0.67	0.27	
C[N+](C)(C)CC1CC(c2ccccc2)(c2ccccc2)C(=O)O1 (stereo not given)	4.6	0.64	
O=C1OC(Cn2cc[n+]3ccccc23)CC1(c1ccccc1)c1ccccc1 (stereo not given)	8		5.2 mg/kg
CN1[C@@H]2CC[C@H]1C[C@@H](OC(=O)C(CO)c1ccccc1)C2 (stereo not given in full)			0.15 mg/kg
CCN(CC)CC1CC(c2ccccc2)(c2ccccc2)C(=O)O1 (stereo not given)	> 100	16.2	
CC(C)c1n(CC2CC(c3ccccc3)(c3ccccc3)C(=O)O2)cc[n+]1C (stereo not given)	0.02	0.03	
CN(C)CC1CC(c2ccccc2)(c2ccccc2)C(=O)O1 (stereo not given)	61.6	> 10	
O=C1OC(Cn2cc[n+]3c2CCC3)CC1(c1ccccc1)c1ccccc1 (stereo not given)	5.5		2.1 mg/kg
C[n+]1ccn(CC2CC(c3ccccc3)(c3ccccc3)C(=O)O2)c1C(C)(C)C (stereo not given)	0.29		0.28 mg/kg
O=C1OC(Cn2cccn2)CC1(c1ccccc1)c1ccccc1 (stereo not given)	3.8		> 10 mg/kg
CC1CCC[n+]2ccn(CC3CC(c4ccccc4)(c4ccccc4)C(=O)O3)c21 (stereo not given)	0.12		0.045 mg/kg
Cc1ccc[n+]2ccn(CC3CC(c4ccccc4)(c4ccccc4)C(=O)O3)c12 (stereo not given)	4.42	1.7	

Other lines, results leading:

ID50 [1] [mg/kg]	ID50 [2] [mg/kg]	ID50 [3]	Compound
> 100		30 mg/kg	CC(C)c1nccn1CC1CC(c2ccccc2)(c2ccccc2)C(=O)O1 (stereo in doubt; 44)
152		3.6 mg/kg	CC(C)c1nccn1CC1CC(c2ccccc2)(c2ccccc2)C(=O)O1 (stereo in doubt; 22)
		20 mg/kg and 8.5 mg/kg	CCc1nccn1CC1CC(c2ccccc2)(c2ccccc2)C(=O)O1 (stereo not given)
0.74		1.3 mg/kg	CC(C)(C)c1nccn1CC1CC(c2ccccc2)(c2ccccc2)C(=O)O1 (stereo not given)
0.54		0.9 mg/kg	CCCc1n(CC2CC(c3ccccc3)(c3ccccc3)C(=O)O2)cc[n+]1C (stereo not given)
29		29 mg/kg	Cc1nccn1CC1CC(c2ccccc2)(c2ccccc2)C(=O)O1 (stereo not given)
167		1.9 mg/kg	CC(C)c1nccn1C[C@H]1CC(c2ccccc2)(c2ccccc2)C(=O)O1
5.3	1.3		CCc1nccn1C[C@H]1CC(c2ccccc2)(c2ccccc2)C(=O)O1
> 100		12.5 mg/kg	CCCc1nccn1CC1CC(c2ccccc2)(c2ccccc2)C(=O)O1 (stereo not given)
